What is called mortality is the share of the test organisms that died. What is called inhibition is the percentage by which the read-out fell short of the control. What is called LC50 is the concentration that kills 50% of the test population.

We go through four molecules from ChEMBL document CHEMBL3046322, “Insect growth regulatory effects by diterpenes from Calceolaria talcana Grau & Ehrhart (Calceolariaceae: Scrophulariaceae) against Spodoptera frugiperda and Drosophila melanogaster” (2013).

The subject of assay [1] is Spodoptera frugiperda. The experiment in a line: Insecticidal activity against first-instar larval stage of Spodoptera frugiperda (fall armyworm) fed with compound incorporated diet assessed as mortality at 20 ug/ml after 7 days (reference value: 5.6%). The assay is classed as functional. Conditions: 168 h.
In assay [2] the test system is Spodoptera frugiperda. The experiment in a line: Acute toxicity against last larval stage of Spodoptera frugiperda (fall armyworm) assessed as survival at 20 ug/ml applied topically onto abdomen measured after 24 hr (reference value: 98.8 +/-3.5%). Format: functional.
Assay [3] concerns Spodoptera frugiperda. Put plainly: Growth inhibitory activity against first-instar larval stage of Spodoptera frugiperda (fall armyworm) fed with compound incorporated diet assessed as weight gained at 20 ug/ml after 7 days (reference value: 100%). The assay is classed as functional. Details: scale not given: the % may be the effect or the level left.
Assay [4] has as its system Spodoptera frugiperda. Put plainly: Insecticidal activity against first-instar larval stage of Spodoptera frugiperda (fall armyworm) fed with compound incorporated diet assessed as mortality at 50 to 100 ug/ml after 7 days. The assay is classed as functional.
Assay [5] has as its system Spodoptera frugiperda. Put plainly: Growth inhibitory activity against Spodoptera frugiperda (fall armyworm) larvae fed with compound containing diet assessed as relative growth index at 5 ug/ml (reference value: 1.0 no_unit). Format: functional.
Assay [6] deals with Spodoptera frugiperda. The experiment in a line: Growth inhibitory activity against first-instar larval stage of Spodoptera frugiperda (fall armyworm) fed with compound incorporated diet assessed as length gained at 10 ug/ml after 7 days (reference value: 100%). Format: functional.
Assay [7] concerns Spodoptera frugiperda. Put plainly: Growth inhibitory activity against Spodoptera frugiperda (fall armyworm) larvae fed with compound containing diet assessed as reduction in adult emergence at 35 ug/ml. Format: functional.
Assay [8] has as its system Spodoptera frugiperda. Put plainly: Growth inhibitory activity against first-instar larval stage of Spodoptera frugiperda (fall armyworm) fed with compound incorporated diet assessed as length gained at 20 ug/ml after 21 days (reference value: 100%). The assay is classed as functional. Further details: scale not given: the % may be the effect or the level left.
In assay [9] the test system is Spodoptera frugiperda. Put plainly: Insecticidal activity against first-instar larval stage of Spodoptera frugiperda (fall armyworm) fed with compound incorporated diet assessed as mortality at 10 ug/ml after 7 days (reference value: 5.6%). Format: functional. The settings on record: 168 h.
Assay [10] has as its system Drosophila melanogaster. Put plainly: Insecticidal activity against Drosophila melanogaster larvae fed with compound incorporated diet assessed as mortality after 72 hr by not choice test. Format: functional.
Assay [11] concerns Drosophila melanogaster. The experiment in a line: Insecticidal activity against Drosophila melanogaster larvae fed with compound incorporated diet assessed as mortality at 10 ug/ml after 72 hr by not choice test (reference value: 0%). The assay is classed as functional.
The subject of assay [12] is Drosophila melanogaster. The experiment in a line: Insecticidal activity against Drosophila melanogaster larvae fed with compound incorporated diet assessed as mortality at 100 ug/ml after 72 hr by not choice test (reference value: 0%). The assay is classed as functional.
The subject of assay [13] is Drosophila melanogaster. Put plainly: Insecticidal activity against Drosophila melanogaster larvae fed with compound incorporated diet assessed as mortality at 50 ug/ml after 72 hr by not choice test (reference value: 0%). The assay is classed as functional.
Assay [14] concerns Spodoptera frugiperda. Put plainly: Growth inhibitory activity against first-instar larval stage of Spodoptera frugiperda (fall armyworm) fed with compound incorporated diet assessed as length gained at 35 ug/ml after 7 days (reference value: 100%). The assay is classed as functional.
Assay [15] relates to Spodoptera frugiperda. Put plainly: Growth inhibitory activity against Spodoptera frugiperda (fall armyworm) larvae fed with compound containing diet assessed as growth index at 10 ug/ml (reference value: 0.95 +/-0.02 no_unit). Format: functional.
The test system of assay [16] is Spodoptera frugiperda. The experiment in a line: Insecticidal activity against first-instar larval stage of Spodoptera frugiperda (fall armyworm) fed with compound incorporated diet assessed as mortality at 35 ug/ml after 21 days (reference value: 5.6%). Conditions: 504 h. Format: functional.
Assay [17] deals with Spodoptera frugiperda. The experiment in a line: Acute toxicity against last larval stage of Spodoptera frugiperda (fall armyworm) assessed as survival at 35 ug/ml applied topically onto abdomen measured after 24 hr (reference value: 98.8 +/-3.5%). The assay is classed as functional.
Assay [18] relates to Spodoptera frugiperda. Put plainly: Insecticidal activity against first-instar larval stage of Spodoptera frugiperda (fall armyworm) fed with compound incorporated diet assessed as mortality at 5 ug/ml after 7 days (reference value: 5.6%). Conditions: 168 h. The assay is classed as functional.
Assay [19] deals with Spodoptera frugiperda. The experiment in a line: Growth inhibitory activity against Spodoptera frugiperda (fall armyworm) larvae fed with compound containing diet assessed as reduction in pupae weight at 25 ug/ml. Format: functional, organism-based.
Assay [20] has as its system Spodoptera frugiperda. The experiment in a line: Growth inhibitory activity against Spodoptera frugiperda (fall armyworm) larvae fed with compound containing diet assessed as delay in time to pupation at 20 ug/ml. Format: functional.
Assay [21] concerns Spodoptera frugiperda. The experiment in a line: Growth inhibitory activity against first-instar larval stage of Spodoptera frugiperda (fall armyworm) fed with compound incorporated diet assessed as length gained at 50 ug/ml after 7 days (reference value: 100%). Format: functional.
Assay [22] has as its system Spodoptera frugiperda. Put plainly: Growth inhibitory activity against Spodoptera frugiperda (fall armyworm) larvae fed with compound containing diet assessed as relative growth index at 50 ug/ml (reference value: 1.0 no_unit). The assay is classed as functional.
Assay [23] concerns Spodoptera frugiperda. Put plainly: Acute toxicity against last larval stage of Spodoptera frugiperda (fall armyworm) assessed as survival at 70 ug/ml applied topically onto abdomen measured after 24 hr (reference value: 98.8 +/-3.5%). Format: functional.
Assay [24] deals with Spodoptera frugiperda. The experiment in a line: Growth inhibitory activity against Spodoptera frugiperda (fall armyworm) larvae fed with compound containing diet assessed as growth index at 50 ug/ml (reference value: 0.95 +/-0.02 no_unit). Format: functional.
The subject of assay [25] is Spodoptera frugiperda. Put plainly: Acute toxicity against last larval stage of Spodoptera frugiperda (fall armyworm) assessed as survival at 50 ug/ml applied topically onto abdomen measured after 24 hr (reference value: 98.8 +/-3.5%). Format: functional.
For assay [26], the system named is Spodoptera frugiperda. The experiment in a line: Growth inhibitory activity against Spodoptera frugiperda (fall armyworm) larvae fed with compound containing diet assessed as reduction in survival pupation at >35 ug/ml. Format: functional.
Assay [27] deals with Drosophila melanogaster. Put plainly: Insecticidal activity against Drosophila melanogaster larvae fed with compound incorporated diet assessed as mortality at 35 ug/ml after 72 hr by not choice test (reference value: 0%). The assay is classed as functional.
Assay [28] concerns Spodoptera frugiperda. Put plainly: Growth inhibitory activity against Spodoptera frugiperda (fall armyworm) larvae fed with compound containing diet assessed as delay in time to pupation at 5 ug/ml. The assay is classed as functional.
The test system of assay [29] is Drosophila melanogaster. The experiment in a line: Insecticidal activity against Drosophila melanogaster larvae fed with compound incorporated diet assessed as mortality at 5 ug/ml after 72 hr by not choice test (reference value: 0%). Format: functional.

≈ marks a conversion by molar mass, not a printed value. Calls of active or inactive are those of the source. The calls are words filed in the database; no cut-off is given here.

Take `C[C@H]1[C@H](C)CC[C@]2(C(=O)O)CC[C@]3(C)C(=CC[C@@H]4[C@@]5(C)CC[C@H](O)C(C)(C)[C@@H]5CC[C@]43C)[C@H]12` [URSOLIC ACID]: the mortality at 20 µg/mL in assay [1] came to 29.2%. In addition, the Activity in assay [2] is 20.1%; in assay [3], 52.5%; in [8], 28.6%; in [17], 7.9%. Moreover, the mortality in [4] was 100%. Further, the values for the Growth_index in assay [5] and in assay [15] were 0.98 and 0.69, respectively. In assay [6], the “Larval length gained (% of control)” value was 10.7%. Moreover, the inhibition at 35 µg/mL in [7] was 0%. Besides, the mortality at 10 µg/mL in assay [9] is 16.7%; in assay [11], 7%. Besides, the 50% lethal concentration (LC50) in assay [10] came to 41.3 µg/mL (≈ 90.4 µM). Also, the mortality at 100 µg/mL in assay [12] was 100%. For the same molecule, the mortality at 50 µg/mL in assay [13] came to 65.2%. Also, the “Length gained relative to control” value in [14] is reported as 6.7%. Further, the mortality at 35 µg/mL in [16] is 100%. Besides, in [18], the mortality at 5 µg/mL came to 4.2%. Further, the inhibition result in [19] is “Active”. Besides, in assay [20], the Time was over 24 days. Also, the “Length gain relative to control” value in [21] was 3.4%.

`CC(C)c1ccc2c(c1)CC[C@H]1[C@](C)(CO)CCC[C@]21C` [POMIFERIN A]: the mortality at 20 µg/mL in assay [1] was 46.8%. Further, the Activity in assay [2] was 51%; in assay [3] it was 56.2%; in assay [23], 0%; in assay [8] it was 41.8%; in assay [25], 3.9%; in assay [17], 6.9%. Besides, the Growth_index turned out to be 0.99 in [5], 0.71 in assay [22], 0.54 in [24] and 0.93 in assay [15]. Moreover, the “Larval length gained (% of control)” value in [6] is given as 79%. The inhibition at 35 µg/mL in assay [7] was determined as 0%. The mortality at 10 µg/mL in assay [9] amounted to 41.7%; in assay [11], 13.3%. Besides, the 50% lethal concentration (LC50) in [10] is 16.1 µg/mL (≈ 56.2 µM). Also, the mortality at 100 µg/mL in assay [12] came out at 82.9%. The mortality at 50 µg/mL in [13] stood at 77%. The “inhibition (INH)” value in assay [26] turned out to be 0%. In addition, the “Length gained relative to control” value in [14] is on record as 42.5%. Moreover, in [16], the mortality at 35 µg/mL was found to be 25%. The mortality at 5 µg/mL in assay [18] stood at 33.3%. In assay [19], the inhibition entry was “Active”. Further, the “Length gain relative to control” value in assay [21] worked out at 33.3%.

In the case of `C=CC(C)(C)C1=C(O)C(=O)c2ccccc2C1=O`, the mortality at 20 µg/mL in assay [1] was 91.7%. The Activity in assay [3] was determined as 15.9%; in assay [8], 4.1%. Further, the mortality in [4] was found to be 100%. The Growth_index in assay [5] is listed as 0.69; in [15], 0.41. For the same molecule, the “Larval length gained (% of control)” value in [6] is on record as 24.2%. Besides, the inhibition at 35 µg/mL in assay [7] came out at 0%. Further, the mortality at 10 µg/mL in assay [9] came to 83.3%; in assay [11], 30%. Moreover, the LC50 in assay [10] is 15.8 µg/mL (≈ 65.2 µM). Moreover, the mortality at 50 µg/mL in assay [13] was 100%. Moreover, the “Length gained relative to control” value in assay [14] came out at 10%. Further, the mortality at 35 µg/mL in assay [16] is 100%. Also, the mortality at 5 µg/mL in assay [18] was 41.7%. Besides, the inhibition entry in [19] was “Active”. Also, the “Length gain relative to control” value in assay [21] is recorded as 0%.

On to `C=C[C@]1(C)CC[C@H]2C(=CC[C@@H]3[C@](C)(CO)CC[C@@H]4C[C@@]432)C1`, for which, in assay [1], the mortality at 20 µg/mL came to 55.8%. The Activity in assay [3] is on record as 6.8%; in assay [8], 0%. The mortality in [4] was determined as 100%. Besides, the figures for the Growth_index in assay [5] and in assay [15] were 0.45 and 0.21, respectively. Further, the mortality at 35 µg/mL in [27] and in assay [16] was 100% in each case. In addition, the “Larval length gained (% of control)” value in assay [6] was found to be 39%. Moreover, in [7], the inhibition at 35 µg/mL turned out to be 0%. Also, the mortality at 10 µg/mL in assay [9] was determined as 37.3%; in assay [11], 30%. In addition, the Time in [28] is over 24 days. The values for the mortality at 5 µg/mL in assay [29] and in assay [18] were 0% and 20.8%, respectively. In [10], the LC50 amounted to 9.2 µg/mL (≈ 32.1 µM). Also, in assay [14], the “Length gained relative to control” value came out at 7.5%. Besides, the inhibition result in assay [19] was “Active”. Moreover, the “Length gain relative to control” value in [21] amounted to 0%.
